Measured values published in ChEMBL document CHEMBL3596183, “Cytoprotective effects of hydrogen sulfide-releasing N-methyl-D-aspartate receptor antagonists are mediated by intracellular sulfane sulfur” (Medchemcomm, 2014).
pEC50: −log10 of the molar value. Active and inactive are the calls of the source. No cut-off for these calls is given here.

Key:
SH-SY5Y = assay: Increase in H2S level in human SH-SY5Y cells at 20 uM after 3 hrs by HSip-1 probe-based fluorescence assay; assay type: functional, cell-based
[1] = target: Transient receptor potential cation channel subfamily A member 1 (Rattus norvegicus, UniProt Q6RI86); assay: Activation of TRPA1 in rat astrocytes assessed as induction of Ca2+ influx by calcium green-1/acetoxymethyl ester-based fluorescence assay; assay type: cell-based
Sequence of Transient receptor potential cation channel subfamily A member 1 (Q6RI86 whole entry): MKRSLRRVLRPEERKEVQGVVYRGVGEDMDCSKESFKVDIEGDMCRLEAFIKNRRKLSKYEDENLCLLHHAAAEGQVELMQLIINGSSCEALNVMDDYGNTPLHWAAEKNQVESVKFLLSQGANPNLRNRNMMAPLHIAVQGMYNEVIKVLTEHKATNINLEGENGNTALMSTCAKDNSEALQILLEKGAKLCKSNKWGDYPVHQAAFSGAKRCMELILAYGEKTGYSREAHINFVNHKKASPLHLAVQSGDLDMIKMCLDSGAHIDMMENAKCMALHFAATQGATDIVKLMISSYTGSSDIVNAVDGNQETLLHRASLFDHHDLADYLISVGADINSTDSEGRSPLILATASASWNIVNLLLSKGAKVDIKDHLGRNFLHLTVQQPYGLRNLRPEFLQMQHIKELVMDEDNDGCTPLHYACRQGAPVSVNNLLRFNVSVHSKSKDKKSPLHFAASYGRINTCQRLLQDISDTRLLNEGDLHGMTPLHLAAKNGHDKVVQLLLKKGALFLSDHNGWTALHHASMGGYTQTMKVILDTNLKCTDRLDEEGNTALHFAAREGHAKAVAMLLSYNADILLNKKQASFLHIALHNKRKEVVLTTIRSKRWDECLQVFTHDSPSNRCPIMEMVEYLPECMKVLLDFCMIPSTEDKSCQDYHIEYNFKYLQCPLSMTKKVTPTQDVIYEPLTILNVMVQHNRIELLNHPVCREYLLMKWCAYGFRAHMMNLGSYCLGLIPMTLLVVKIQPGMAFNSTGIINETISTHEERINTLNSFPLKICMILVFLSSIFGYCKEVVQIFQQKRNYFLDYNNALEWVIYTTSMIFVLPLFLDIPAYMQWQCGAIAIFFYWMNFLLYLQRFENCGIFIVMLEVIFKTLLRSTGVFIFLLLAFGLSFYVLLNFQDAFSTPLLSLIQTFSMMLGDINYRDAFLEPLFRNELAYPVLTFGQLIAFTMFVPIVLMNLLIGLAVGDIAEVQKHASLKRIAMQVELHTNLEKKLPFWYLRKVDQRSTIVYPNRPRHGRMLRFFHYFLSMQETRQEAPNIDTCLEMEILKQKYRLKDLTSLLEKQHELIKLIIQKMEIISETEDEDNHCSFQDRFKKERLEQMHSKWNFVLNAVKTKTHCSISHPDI

**Q.** For `CC12CC3CC(C)(C1)CC(NC(=O)c1ccc(-c4cssc4=S)cc1)(C3)C2`, which Activity (SH-SY5Y) is on record?
**A.** Active

**Q.** For `O=C(NC12CC3CC(CC(C3)C1)C2)c1ccc(-c2cssc2=S)cc1`, which Activity (SH-SY5Y) is on record?
**A.** Active

**Q.** How did the pEC50 [1] turn out when `S1SSSSSSS1` [SULFUR] was run?
**A.** 3.94

**Q.** `SSS` was tested. Which pEC50 [1] did it give?
**A.** 7.04
